Data from the NIST ThermoML archive (doi:10.1016/j.jct.2012.07.009).
± gives the expanded uncertainty stated by the source. Blank lines part the entries; values can stand above or below the molecule they belong to.

Assay: an = ratio of the nth substance listed
Conditions: 298.15 K, 101 kPa, Liquid, Vibrating tube method

- mass density (a1 = 0.0025): 998.08 ± 0.15 kg/m3
- mass density (a1 = 0.0053): 998.93 ± 0.15 kg/m3
- mass density (a1 = 0.0101): 1000.45 ± 0.15 kg/m3
- mass density (a1 = 0.0134): 1001.53 ± 0.15 kg/m3
- mass density (a1 = 0.016): 1002.32 ± 0.15 kg/m3
Structure (SMILES): O=C1CNC(=O)CN1 [2,5-diketopiperazine] + O

- mass density (a1 = 0.1072): 1039.03 ± 0.16 kg/m3
- mass density (a1 = 0.1494): 1051.67 ± 0.16 kg/m3
- mass density (a1 = 0.1778): 1060.02 ± 0.17 kg/m3
- mass density (a1 = 0.2042): 1068.38 ± 0.17 kg/m3
- mass density (a1 = 0.2232): 1074.06 ± 0.17 kg/m3
- mass density (a1 = 0.2433): 1080.28 ± 0.17 kg/m3
Structure (SMILES): NCC(=O)O [2-aminoacetic acid] + O

- mass density (a1 = 0.1079): 1027.42 ± 0.16 kg/m3
- mass density (a1 = 0.1403): 1040.98 ± 0.16 kg/m3
- mass density (a1 = 0.1768): 1056.44 ± 0.17 kg/m3
- mass density (a1 = 0.1982): 1065.68 ± 0.17 kg/m3
- mass density (a1 = 0.2153): 1072.61 ± 0.17 kg/m3
- mass density (a1 = 0.2301): 1077.43 ± 0.17 kg/m3
Structure (SMILES): O=C(O)CNCC(=O)O [N-(carboxymethyl)glycine] + O
